Results published in US20230295212A1 (ROME Therapeutics, Inc., priority 2022, published 2023).

Legend:
[1] = molecular target: T1, LINE1 reverse transcriptase (Homo sapiens, UniProt O00370); assay: Stable artificial-intron Cis LINE1 reporter assay (HeLa Tet-On 3G, Firefly luciferase); type: cell-based; conditions: HeLa L1 artificial-intron reporter cells, doxycycline 500 ng/mL, 72 h, class symbols
T1 construct: expressed in transfected cells; host or cells: HeLa Tet-On 3G (Takara, cat no 631183)
How it was run: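 HeLa Tet-On 3G clone stably carrying a bi-directional doxycycline-inducible artificial-intron LINE1 reporter, plated at 8,000 cells/well onto serially diluted compound. Expression induced with 500 ng/mL doxycycline (final); Firefly luciferase luminescence (Dual-Glo) read 72 h after plating as LINE1 activity.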

[2] = system: interferon-stimulated gene (ISG) response; assay: In vivo decitabine challenge model in C57BL/6 mice (ISG response); parameters: species or system mouse; conditions: decitabine i.p. 5 mg/kg, compound p.o. 0.6, 2.0, 6.0 mg/kg daily Day 0 to Day 4, IFIT2 v. GAPDH
Experimental: Exemplary compounds were tested for ability to alter the interferon-stimulated gene (ISG) response in C57BL/6 mice treated with decitabine. Assay procedures and results are described below. Twenty 9-11 week old C57BL/6 mice were acclimated to the lab for at least 5 days. Compound 23 was prepared in a 0.5% methylcellulose solution for p.o. administration. Decitabine (Sigma-Aldrich) was dissolved in sterile PBS (pH 7.4) and dosed within 30 minutes of preparation of the solution. Doses of both the compound and decitabine were administered once a day, every day from Day 0 to Day 4. On Day 0, mice were split into five groups of five mice and given their first dose of decitabine (i.p., 5 mg/kg) and compound 23. Dosing groups were: Decitabine and compound 23 were administered daily from Day 0 to Day 4. All mice were euthanized 1 hour after the last dose administration on Day 4. Spleens, liver, and terminal colon were collected, along with plasma from each animal. The fold changes in interferon-stimulated gene (ISG) expression was calculated by first normalizing to GAPDH gene using the Delta CT method. The CT (gene of interest)—CT (reference gene) was calculated to generate a delta CT for all samples. The fold change was then calculated by taking the Log2(Delta CT(control)—Delta CT (experimental). The control in this example was the PBS control animal group. The Taqman duplex assay was used to determine levels of GAPDH v. IFIT2. Twenty 9-11 week old C57BL/6 mice were acclimated to the lab for at least 5 days. Compound 2 was prepared in 20% PEG400 in PBS (final pH 4.5) for p.o. administration. Decitabine (Sigma) was dissolved in sterile PBS (pH 7.4) and dosed within 30 minutes of preparation of the solution. Doses of both Compound 2 and decitabine were administered once a day. On Day 0, mice were split into five groups of five mice and given their first dose of decitabine and Compound 2. […] The fold changes in interferon-stimulated gene (ISG, specifically IRF7 and MX1) expression was calculated by first normalizing to GAPDH gene using the Delta CT method. […]

human PBMC = assay: Decitabine-stimulated human PBMC assay (IFN-β, cell viability); type: cell-based; conditions: 5 days; for IFN-β level: anti-CD3/anti-CD28, decitabine 10 μM
Experimental: EasySep buffer (32 mL, […] Technologies, cat. #20144) was used to dilute 8 mL of LRSC buffy coat (from fresh Leukopak) with gentle mixing. The diluted buffy coat (20 mL) was transferred into each of two SepMate 50 tubes, and the tubes were filled with 15 mL of Lyphoprep ([…], cat. #07851) density gradient. The SepMate tubes were then centrifuged at 1200G for 10 minutes at room temperature with the brake on. The top layer of supernatant was collected in SepMate tubes by quickly pouring it into a new 50 mL conical tube. The PBMCs were washed with EasySep buffer ×2 by centrifuging at 300G for 5 minutes. The cells were resuspended in 30 mL of EasySep and centrifuged at 100G for 5 minutes with the brake off, and the platelets were removed. The cells were then resuspended in 6 mL of 1×RBC lysis buffer (Invitrogen) and incubated at 37° C. for 5 minutes. 25 mL of EasySep buffer was then mixed into the tube and centrifuged at 300G for 5 minutes. The cells were resuspended in 10 mL of EasySep buffer and the cells were then counted with Cellometer (AO/PI). The PBMCs were resuspended in RPMI1640 (ThermoFisher)^+10% FBS (HyClone)^+μ/s at 3×10^6/mL. The PBMCs (100 μL, 300 k PBMCs) were then seeded in a 96-well flat bottom microplate (Corning) that had been precoated with 100 μL of anti-CD3 antibody (10 μg/mL in PBS, Biolegend) or PBS at 4° C., one day before the assay was commenced.
To each well the following solutions were added 1) 100 μL of cells (final cell number per well is 3×10^5 cell/well); 2) 25 μL of anti-CD28 antibody at 6×(5 μg/mL final concentration, Biolegend); 3) 25 μL of decitabine at 6×(10 μM final concentration); and 4) Compound in DMSO was dispensed directly into each well with a d300e digital dispenser (Tecan). The final concentration of DMSO for each well was normalized to 0.3%. The plate was incubated at 37° C. without any agitation for 5 days. Samples were collected 120 hours after incubation to determine IFN-0 and IL-2 levels using a U-PLEX Human IFN-β Assay Sector (5PL) (MSD, cat. #K151VIK-2).
After 5 days, the plate was spun down at 100×G for 5 minutes. Supernatants (100 μL) were collected for interferon β(IFN-β) analysis using the MSD assay noted above, and any residual supernatant was stored at −80° C.

[3] = system: THP1-Dual KO-TREX1 xenograft tumors; assay: Altering IFN production in THP1 TREX1 KO xenografts (compounds 2, 25, 40); type: in vivo, mouse; conditions: CB-17 SCID mice, decitabine 5 mg/kg IP, test compound 10, 30 or 100 mg/kg PO once daily 4 days, tumors 24 h post-last dose
Experimental: Exemplary compounds 2, 25 and 40 were tested for their ability to alter IFN levels in THP1-Dual™ KO-TREX1 xenografts in mice. Assay procedures are described below.
CB-17 SCID female mice were inoculated subcutaneously with 10 million THP1-Dual™ KO-TREX1 cells in 200 μl PBS with Matrigel (1:1) and grouped when tumor volume reached 350-400 mm^3. Mice bearing THP1-Dual™ KO-TREX1 xenograft tumors were then separated into 5 groups. Three groups were administered: (1) decitabine (DAC) at 5 mg/kg IP, once daily, for 4 days, and (2) test compound at 10, 30, or 100 mg/kg, PO, once daily, for 4 days. One group was administered decitabine (DAC) at 5 mg/kg IP, once daily, for 4 days, and the test compound vehicle control. The final group was administered the vehicle control from both the test compound and the vehicle control from decitabine. Decitabine is formulated in sterile PBS, pH 7.4, and Compound 2, 25, and 40 were formulated in 20% PEG400 in PBS.
Tumors were harvested 24 h post-last dose administered on day 4, ground in PBS at 50 Hz for 5 min, and kept on ice for 30 min while being vortexed every 5 min. […] Equal amounts of proteins were added to 96-well black plates, and luciferase signal was measured using the QUANTI-Luc™ detection medium according to manufacturer's instructions. Luminescence was measured using the EnVision® 2105 Multimode Plate Reader. […]

[4] = molecular target: T2, HERV-K reverse transcriptase (Homo sapiens, UniProt V9H0F6); assay: Homogeneous time-resolved fluorescence (HTRF) HERV-K RT assay; type: biochemical; conditions: triphosphate analogs, HERV-K enzyme 16 ng/well, 25° C. 30 minutes
T2 construct: fused on or other part: C-terminal 8xHis tag
T2 sequence (V9H0F6 entry or part of it): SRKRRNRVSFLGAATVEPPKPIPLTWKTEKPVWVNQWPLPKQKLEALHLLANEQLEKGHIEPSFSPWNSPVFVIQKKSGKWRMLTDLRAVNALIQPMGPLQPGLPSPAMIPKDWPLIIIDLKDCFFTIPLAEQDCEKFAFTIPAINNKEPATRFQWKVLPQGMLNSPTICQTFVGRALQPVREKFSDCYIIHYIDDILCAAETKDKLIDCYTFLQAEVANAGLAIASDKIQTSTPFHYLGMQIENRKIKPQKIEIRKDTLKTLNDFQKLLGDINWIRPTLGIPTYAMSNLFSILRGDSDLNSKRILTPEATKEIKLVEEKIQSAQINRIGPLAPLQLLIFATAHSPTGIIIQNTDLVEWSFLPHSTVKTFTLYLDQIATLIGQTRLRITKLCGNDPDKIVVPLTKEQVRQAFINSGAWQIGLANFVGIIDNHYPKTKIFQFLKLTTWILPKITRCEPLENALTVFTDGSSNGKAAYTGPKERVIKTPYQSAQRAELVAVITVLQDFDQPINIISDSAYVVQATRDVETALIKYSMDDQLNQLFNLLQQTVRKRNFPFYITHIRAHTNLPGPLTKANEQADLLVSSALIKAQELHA
Experimental: Exemplary triphosphate analogs were tested for ability to inhibit HERV-K reverse transcriptase using a homogeneous time-resolved fluorescence (HTRF) assay. Assay procedures and results are described below.
The HERV-K reverse transcriptase homogeneous time-resolved fluorescence (HTRF) assay was performed in a 384-well format with HERV-K reverse transcriptase (2-596)-8His protein. Baculoviruses were created using Bac-to-Bac technology (Invitrogen). pFastflac donor plasmids containing HERV-K reverse transcriptase sequence (NCBI GenBank number AAC63291.1, J. Virology (1999) Vol. 73, No. 3, pp. 2365-2375) were transformed into DH10 Bac cells following the manufacturer's instructions. Recombinant bacmids were then isolated clonally and transfected into SF9 cells with lipofectin. HERV-K reverse transcriptase was expressed in the SF9 insect cells and then purified using immobilized metal affinity chromatography (IMAC) followed by size-exclusion chromatography (SEC).
Test compound was serially diluted in DMSO and further diluted in the assay buffer (50 mM Tris-HCl, 50 mM KCl, 10 mM MgCl2, 10 mM DTT, pH 8.1) to achieve a final DMSO concentration of 1%. The serially diluted compound was mixed with 16 ng/well of HERV-K enzyme, 5 nM of pre-annealed template/biotin-primer pair (synthesized at Geneway Biotechnology), 10 nM of Fluorescein-12-dCTP fluorescent probe (PerkinElmer), and 1 mM dGTP, dATP, and DTTP (ThermoFisher). The template/biotin-primer sequences were:
After incubating at 25° C. for 30 minutes, the detection reagent 20 mM EDTA with streptavidin-terbium cryptate (Cisbio Bioassay) in the PPI buffer (Cisbio Bioassay) was added, and the mixture was incubated at 25° C. for 60 minutes. At the end of the incubation, fluorescence was read at ex/em=337/485 nm and ex/em=337/520 nm on an Envision 2104 plate reader (PerkinElmer). The fluorescence ratio at 520/485 nm was used for the calculation. […] IC50 values were calculated by fitting the compound dose inhibition curve with a 4-parameter non-linear regression equation.

[5] = molecular target: T3, LINE1 reverse transcriptase (recombinant MBP-tagged LINE1 protein (238-1061)) (Homo sapiens, UniProt O00370); assay: Homogeneous time-resolved fluorescence (HTRF) LINE1 RT assay; type: biochemical; conditions: triphosphate analogs, LINE1 enzyme 64 ng/well, 25° C. 60 minutes
T3 construct: recombinant MBP-tagged LINE1 protein (238-1061); made in house
Experimental: Exemplary triphosphate analogs were tested for the ability to inhibit LINE1 reverse transcriptase using a homogeneous time-resolved fluorescence (HTRF) assay. Assay procedures and results are described below.
The LINE1 reverse transcriptase homogeneous time-resolved fluorescence (HTRF) assay was performed with recombinant MBP-tagged LINE1 protein (238-1061) (generated and purified according to procedures in Dai L. et al. BMC Biochemistry 2011; 12:18) in a 384-well format. Test compound was serially diluted in DMSO and further diluted in the assay buffer (50 mM Tris-HCl, 50 mM KCl, 10 mM MgCl2, 10 mM DTT, pH 8.1) to achieve a final DMSO concentration of 1%. The serially diluted compound was mixed with 64 ng/well of LINE1 enzyme, 5 nM of pre-annealed template/biotin-primer pair (synthesized at Generay Biotechnology), 10 nM of Fluorescein-12-dCTP fluorescent probe (PerkinElmer), and 1 μM dGTP/dATP/dTTP (ThermoFisher Scientific) in the assay buffer. The template/biotin-primer sequences were as follows:
After incubating at 25° C. for 60 minutes, the detection reagent (20 mM EDTA with streptavidin-terbium cryptate, Cisbio Bioassay) in the PPI buffer (Cisbio Bioassay) was added, and the mixture was incubated at 25° C. for 30 minutes. At the end of the incubation, fluorescence was read at ex/em=337/485 nm and ex/em=337/520 nm on an Envision 2104 plate reader (PerkinElmer). The fluorescence ratio at 520/485 nm was used for the calculation. […] The IC50 was calculated by fitting the compound dose inhibition curve with a 4-parameter non-linear regression equation.

SMILES	IC50 [1]	change in interferon-stimulated gene (ISG) response (FIG. 2A) [2]	IFN-β level (human PBMC)	inhibition of DAC-induced IFN signal in THP1 tumors [3]	cell viability (human PBMC; decitabine 10 μM)	IC50 [4]	IC50 [5]
C#C[C@]1(CO)O[C@@H](n2cnc3c(N)nc(F)nc32)C[C@@H]1O [Compound 23, (2R,3S,5R)-5-(6-amino-2-fluoro-9H-purin-9-yl)-2-ethynyl-2-(hydroxymethyl) tetrahydrofuran-3-ol]	≤ 50 nM	change in ISG response	activated production of IFN-β				
C#C[C@]1(CO)O[C@@H](n2cnc3c(N)nc(Cl)nc32)C[C@@H]1O [Compound 25, (2R,3S,5R)-5-(6-amino-2-chloro-9H-purin-9-yl)-2-ethynyl-2-(hydroxymethyl) tetrahydrofuran-3-ol]	≤ 50 nM		activated production of IFN-β				
Nc1ccn([C@@H]2O[C@@](CO)(CCl)[C@@H](O)[C@@H]2F)c(=O)n1 [Compound 40, 4-amino-1-((2R,3S,4R,5R)-5-(chloromethyl)-3-fluoro-4-hydroxy-5-(hydroxymethyl)tetrahydrofuran-2-yl)pyrimidin-2(1H)-one]	≤ 50 nM		inhibition of IFN-0	potent inhibition of DAC-induced IFN signal	some cell viability losses at higher concentrations		
Nc1nc(=O)n([C@@H]2O[C@](CBr)(COP(=O)(O)OP(=O)(O)OP(=O)(O)O)[C@@H](O)[C@@H]2F)cc1F [Compound 86-TP, ((2R,3R,4S,5R)-5-(4-amino-5-fluoro-2-oxopyrimidin-1(2H)-yl)-2-(bromomethyl)-4-fluoro-3-hydroxytetrahydrofuran-2-yl) methyl tetrahydrogen triphosphate; tetrakis(triethylamine)]						> 10000 nM	1610 nM
